From patent publication US10676465B2, “GLP-1 receptor agonists and uses thereof” (Pfizer Inc., priority 2018, dated 2020) come the findings set out here.

Read-outs that look alike come from different tables or passages of the source.

The target in experiment [1] is human GLP-1R (Homo sapiens, UniProt P43220, G168S). Put plainly: CHO GLP-1R Clone H6 - Assay 1 (HTRF cAMP agonist assay). Type of experiment: cell-based. Particulars: for EC50: CHO GLP-1R Clone H6, cAMP HTRF, geometric mean; for Emax: CHO GLP-1R Clone H6, arithmetic mean, relative to saturating GLP-1 (1 μM).
The target in experiment [2] is human GLP-1R (Homo sapiens (Human), UniProt P43220, L260F). Put plainly: CHO GLP-1R Clone C6 - Assay 2 (HTRF cAMP agonist assay, low receptor density). The following applies: for EC50: CHO GLP-1R Clone C6 (low receptor density), cAMP HTRF, geometric mean; for Emax: read-out: Assay 2 Emax (%), CHO GLP-1R Clone C6 (low receptor density), arithmetic mean, relative to saturating GLP-1 (1 μM). For orientation: In TR-FRET formats the signal depends on donor and acceptor labels being close together.
human GLP-1R (Homo sapiens (Human), UniProt P43220, L260F), sequence (P43220 24-463 L260F): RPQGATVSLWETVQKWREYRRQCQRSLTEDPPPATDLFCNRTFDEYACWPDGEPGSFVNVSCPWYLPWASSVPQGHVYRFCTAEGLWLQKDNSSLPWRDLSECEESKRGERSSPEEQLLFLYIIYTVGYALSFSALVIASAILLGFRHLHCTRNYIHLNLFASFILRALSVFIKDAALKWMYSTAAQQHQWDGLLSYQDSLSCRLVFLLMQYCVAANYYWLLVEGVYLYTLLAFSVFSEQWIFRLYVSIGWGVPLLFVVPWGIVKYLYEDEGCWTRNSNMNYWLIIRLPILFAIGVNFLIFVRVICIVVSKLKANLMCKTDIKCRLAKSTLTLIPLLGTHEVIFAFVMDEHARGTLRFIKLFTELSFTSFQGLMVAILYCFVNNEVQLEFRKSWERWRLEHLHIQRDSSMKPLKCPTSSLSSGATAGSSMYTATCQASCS

human GLP-1R (Homo sapiens, UniProt P43220, G168S), sequence (P43220 24-463 G168S limits assumed): as the sequence (P43220 24-463 L260F) above, with G145S, F237L counted along it

As usually defined, the EC50 is the concentration needed to bring the measured effect to its halfway point. What is called Emax is the greatest response seen or fitted, relative to the assay's reference. On to `COCCn1c(CN2CCN(c3cccc4c3OC(C)(c3ccc(Cl)cc3F)O4)CC2)nc2ccc(C(=O)O)cc21` (stereo not shown) [Example 19, 2-({4-[2-(4-chloro-2-fluorophenyl)-2-methyl-1,3-benzodioxol-4-yl]piperazin-1-yl}methyl)-1-(2-methoxyethyl)-1H-benzimidazole-6-carboxylic acid], for which the results for the EC50 in experiment [1] and in experiment [2] (read-out: Assay 2 EC50) were 1.2 nM and 25 nM, respectively. Further, the Emax turned out to be 87% in experiment [1] and 100% in experiment [2].
In the case of `COCCn1c(CN2CCC(c3cccc4c3OC(c3ccc(Cl)cc3F)O4)CC2)nc2ccc(C(=O)O)cc21` (stereo not shown) [Example 20, 2-({4-[2-(4-chloro-2-fluorophenyl)-1,3-benzodioxol-4-yl]piperidin-1-yl}methyl)-1-(2-methoxyethyl)-1H-benzimidazole-6-carboxylic acid], the EC50 in experiment [1] was 17 nM; in experiment [2] (read-out: Assay 2 EC50), 270 nM. The Emax in experiment [1] amounted to 85%; in experiment [2], 100%.
As to `COCCn1c(CN2CCC(c3cccc4c3OC(c3ccc(Cl)cc3F)O4)CC2)nc2ccc(C(=O)O)cc21` (stereo not shown) [Example 21, 2-({4-[2-(4-chloro-2-fluorophenyl)-1,3-benzodioxol-4-yl]piperidin-1-yl}methyl)-1-(2-methoxyethyl)-1H-benzimidazole-6-carboxylic acid], the EC50 in experiment [1] and in experiment [2] (Assay 2 EC50 (nM)) was greater than 20000 nM throughout.
With `COCCn1c(CN2CCC(c3cccc4c3OC(C)(c3ccc(Cl)cc3F)O4)CC2)nc2ccc(C(=O)O)cc21` (stereo not shown) [Example 24, 2-({4-[2-(4-chloro-2-fluorophenyl)-2-methyl-1,3-benzodioxol-4-yl]piperidin-1-yl}methyl)-1-(2-methoxyethyl)-1H-benzimidazole-6-carboxylic acid], the EC50 in experiment [1] turned out to be 1.4 nM; in experiment [2] (read-out: Assay 2 EC50) it was 49 nM. Besides, the maximal effect (Emax) in experiment [1] turned out to be 82%; in experiment [2] it was 110%.
As to `COCCn1c(CN2CCC(c3cccc4c3OC(c3ccc(C#N)cc3F)O4)CC2)nc2ccc(C(=O)O)cc21` (stereo not shown) [Example 27, 2-({4-[2-(4-cyano-2-fluorophenyl)-1,3-benzodioxol-4-yl]piperidin-1-yl}methyl)-1-(2-methoxyethyl)-1H-benzimidazole-6-carboxylic acid], the values for the EC50 in experiment [1] and in experiment [2] (read-out: Assay 2 EC50) were 61 nM and 1000 nM, respectively. The Emax in experiment [1] amounted to 98%; in experiment [2], 100%.
In the same order, the values of `CCc1ccc(C2(C)Oc3cccc(C4CCN(Cc5nc6ccc(C(=O)O)cc6n5CCOC)CC4)c3O2)cc1` (stereo not shown) [Example 29, 2-({4-[2-(4-ethylphenyl)-2-methyl-1,3-benzodioxol-4-yl]piperidin-1-yl}methyl)-1-(2-methoxyethyl)-1H-benzimidazole-6-carboxylic acid] are 5.3 nM, 150 nM, 87% and 93%.
As for `COCCn1c(CN2CCC(c3cccc4c3OC(C)(c3ccc(OC)c(F)c3)O4)CC2)nc2ccc(C(=O)O)cc21` (stereo not shown) [Example 30, 2-({4-[2-(3-fluoro-4-methoxyphenyl)-2-methyl-1,3-benzodioxol-4-yl]piperidin-1-yl}methyl)-1-(2-methoxyethyl)-1H-benzimidazole-6-carboxylic acid], the EC50 was 45 nM in experiment [1] and 1100 nM in experiment [2] (read-out: Assay 2 EC50). Moreover, the maximal effect (Emax) in experiment [1] was 86%; in experiment [2], 77%.
Regarding `COCCn1c(CN2CCC(c3cccc4c3OC(C)(c3cccc(F)c3)O4)CC2)nc2ccc(C(=O)O)cc21` (stereo not shown) [Example 31, 2-({4-[2-(3-fluorophenyl)-2-methyl-1,3-benzodioxol-4-yl]piperidin-1-yl}methyl)-1-(2-methoxyethyl)-1H-benzimidazole-6-carboxylic acid], the concentration for a half-maximal effect (EC50) turned out to be 190 nM in experiment [1] and 1900 nM in experiment [2] (read-out: Assay 2 EC50). The Emax in experiment [1] is 88%; in experiment [2], 65%.
For `COCCn1c(CN2CCC(c3cccc4c3OC(C)(c3ccc(OC)cc3)O4)CC2)nc2ccc(C(=O)O)cc21` (stereo not shown) [Example 32, 1-(2-methoxyethyl)-2-({4-[2-(4-methoxyphenyl)-2-methyl-1,3-benzodioxol-4-yl]piperidin-1-yl}methyl)-1H-benzimidazole-6-carboxylic acid], in that order: 18 nM, 450 nM, 86% and 87%.
`COCCn1c(CN2CCC(c3cccc4c3OC(C)(c3ccc(Cl)cc3)O4)CC2)nc2ccc(C(=O)O)cc21` (stereo not shown) [Example 33, 2-({4-[2-(4-chlorophenyl)-2-methyl-1,3-benzodioxol-4-yl]piperidin-1-yl}methyl)-1-(2-methoxyethyl)-1H-benzimidazole-6-carboxylic acid]: the EC50 was determined as 2.6 nM in experiment [1] and 100 nM in experiment [2] (read-out: Assay 2 EC50). Also, the Emax in experiment [1] is 85%; in experiment [2], 86%.
For `COCCn1c(CN2CCC(c3cccc4c3OC(C)(c3ccc(C#N)cc3)O4)CC2)nc2ccc(C(=O)O)cc21` (stereo not shown) [Example 34, 2-({4-[2-(4-cyanophenyl)-2-methyl-1,3-benzodioxol-4-yl]piperidin-1-yl}methyl)-1-(2-methoxyethyl)-1H-benzimidazole-6-carboxylic acid], in that order: 7.8 nM, 110 nM, 98% and 88%.
In the same order, the values of `COCCn1c(CN2CCC(c3cccc4c3OC(C)(c3ccc(OC)cc3F)O4)CC2)nc2ccc(C(=O)O)cc21` (stereo not shown) [Example 35, 2-({4-[2-(2-fluoro-4-methoxyphenyl)-2-methyl-1,3-benzodioxol-4-yl]piperidin-1-yl}methyl)-1-(2-methoxyethyl)-1H-benzimidazole-6-carboxylic acid] are 6.6 nM, 170 nM, 86% and 89%.
With `COCCn1c(CN2CCC(c3cccc4c3OC(C)(c3ccccc3OC)O4)CC2)nc2ccc(C(=O)O)cc21` (stereo not shown) [Example 37, 1-(2-methoxyethyl)-2-({4-[2-(2-methoxyphenyl)-2-methyl-1,3-benzodioxol-4-yl]piperidin-1-yl}methyl)-1H-benzimidazole-6-carboxylic acid], the EC50 was 81 nM in experiment [1] and 1000 nM in experiment [2] (read-out: Assay 2 EC50). Further, the Emax in experiment [1] worked out at 100%; in experiment [2] it was 83%.
For the compound `COCCn1c(CN2CCC(c3cccc4c3OC(C)(c3ccc(F)cc3)O4)CC2)nc2ccc(C(=O)O)cc21` (stereo not shown) [Example 38, 2-({4-[2-(4-fluorophenyl)-2-methyl-1,3-benzodioxol-4-yl]piperidin-1-yl}methyl)-1-(2-methoxyethyl)-1H-benzimidazole-6-carboxylic acid], the results for the concentration for a half-maximal effect (EC50) in experiment [1] and in experiment [2] (read-out: Assay 2 EC50) were 10 nM and 240 nM, respectively. Moreover, the Emax in experiment [1] is 87%; in experiment [2], 73%.
In the same order, the values of `COCCn1c(CN2CCC(c3cccc4c3OC(C)(c3ccc(C(F)(F)F)cc3)O4)CC2)nc2ccc(C(=O)O)cc21` (stereo not shown) [Example 40, 1-(2-methoxyethyl)-2-[(4-{2-methyl-2-[4-(trifluoromethyl)phenyl]-1,3-benzodioxol-4-yl}piperidin-1-yl)methyl]-1H-benzimidazole-6-carboxylic acid] are 14 nM, 130 nM, 88% and 73%.
